Several values for one entry are separate records, joined by “and”; a condition that tells them apart may be missing. Equal entries are not always repeated. Where two headings read alike, the source gives them in different places.
Key:
[1] = target: Electrophorus electricus AChE (Electrophorus electricus, UniProt O42275); assay: biochemical; details: for IC50: 25 °C, pH 8
Description: Cholinesterase activity is determined using a modified colorimetric method first described by Ellman[40]. […] The stock was then further diluted by factors of ten to produce solutions of 1 mM, 100 µM, 10 µM, 1 µM, and 0.1 µM which corresponds to concentrations of 100 µM, 10 µM, 1 µM, 0.1 µM, and 0.01 µM in the final reaction mixture. The test concentrations were stored in the refrigerator until the day of the assay. Trisma HCl buffer (50 mM, adjusted to pH 8 with 2 N NaOH) was prepared as the buffer and used to prepare enzyme stock solution (22 U/ml for Electrophorus electricus AChE and 12 U/ml BuChE from equine serum), 15 mM acetylthiocholine iodide, 15 mM S-butyrylthiocholine iodide and 1.5 mM DTNB (Ellman’s reagent). The enzyme stock solution was stabilised with 1% bovine serum albumin and stored in aliquots at −80 °C. A clear, flat bottom 96 well plate was used to perform the experiments with each concentration performed in triplicate. Prior to the assay the background absorbance for each compound at the different test concentrations was measured and accounted for when reading the final absorbance. […] Following this, 30 µl of the substrate was added to each well simultaneously using a multi pipette. […] A one-sample t-test was performed on the data to test for statistical significance.

recombinant human MAO-A = target: T1, recombinant human MAO-A (Homo sapiens, UniProt P21397); assay: biochemical; details: 37 °C
T1 sequence (P21397 1-527): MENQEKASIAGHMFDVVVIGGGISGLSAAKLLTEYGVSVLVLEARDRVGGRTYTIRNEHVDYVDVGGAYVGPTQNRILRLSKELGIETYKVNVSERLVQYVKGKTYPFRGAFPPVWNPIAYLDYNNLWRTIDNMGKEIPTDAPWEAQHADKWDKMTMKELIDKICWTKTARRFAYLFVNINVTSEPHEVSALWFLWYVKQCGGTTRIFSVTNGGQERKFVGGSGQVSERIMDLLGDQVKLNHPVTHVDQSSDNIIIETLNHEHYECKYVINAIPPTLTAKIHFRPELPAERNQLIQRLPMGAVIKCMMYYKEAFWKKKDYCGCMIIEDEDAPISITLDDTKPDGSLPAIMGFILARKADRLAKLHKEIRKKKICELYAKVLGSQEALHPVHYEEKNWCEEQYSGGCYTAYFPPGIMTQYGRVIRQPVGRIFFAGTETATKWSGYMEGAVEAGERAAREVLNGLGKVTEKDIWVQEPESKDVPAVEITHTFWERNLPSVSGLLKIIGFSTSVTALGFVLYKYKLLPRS
Description: The stock was then further diluted by factors of ten to produce solutions of 1 mM, 100 µM, 10 µM, 1 µM, and 0.1 µM which would correspond to concentrations of 100 µM, 10 µM, 1 µM, 0.1 µM, and 0.01 µM in the final reaction mixture. A potassium phosphate buffer ([…] 100 mM, pH 7.4, 0.9% w/v NaCl) was prepared and refrigerated until further use. The enzyme stock solutions were prepared by dissolving 2.5 mg of enzyme in 33.33 ml of phosphate buffer to produce stock solutions of 0.075 mg/ml which were stored in aliquots at −80 °C until use. Once in the final reaction mixture, this enzyme solution will have a concentration of 0.0075 mg/ml. […] The fresh substrate was prepared on the day of the assay. The assay was carried out in 2 ml Eppendorf vials. […] Following this, 25 µl of the enzyme stock were added to each vial in 10 s intervals and the vials were incubated at 37 °C for 10 min. […] To stop the reaction at the end of this time 150 hx00B5;l of 2 N NaOH was added and the mixture was shaken. Using a micropipette 80 hx00B5;l of the mixture was transferred to a well in a black 96 well plate. The plate was placed in the fluorescent plate reader and read at an excitation/emission wavelength of 310 nm/410 nm. Each assay was run in triplicate and the data were analysed with Graph Pad Prism 8 software (San Diego, USA).
The MAO inhibitory activity of the compounds was assessed using a fluorometric assay with recombinant human MAO-A and human MAO-B enzymes.

recombinant human MAO-B = recombinant human MAO-B (Homo sapiens, UniProt P27338); assay: MAO-B fluorometric assay (kynuramine); format: biochemical; details: for IC50: kynuramine 30 µM, 37 °C, read-out: MAO-B IC50
Sequence of recombinant human MAO-B (P27338 whole entry): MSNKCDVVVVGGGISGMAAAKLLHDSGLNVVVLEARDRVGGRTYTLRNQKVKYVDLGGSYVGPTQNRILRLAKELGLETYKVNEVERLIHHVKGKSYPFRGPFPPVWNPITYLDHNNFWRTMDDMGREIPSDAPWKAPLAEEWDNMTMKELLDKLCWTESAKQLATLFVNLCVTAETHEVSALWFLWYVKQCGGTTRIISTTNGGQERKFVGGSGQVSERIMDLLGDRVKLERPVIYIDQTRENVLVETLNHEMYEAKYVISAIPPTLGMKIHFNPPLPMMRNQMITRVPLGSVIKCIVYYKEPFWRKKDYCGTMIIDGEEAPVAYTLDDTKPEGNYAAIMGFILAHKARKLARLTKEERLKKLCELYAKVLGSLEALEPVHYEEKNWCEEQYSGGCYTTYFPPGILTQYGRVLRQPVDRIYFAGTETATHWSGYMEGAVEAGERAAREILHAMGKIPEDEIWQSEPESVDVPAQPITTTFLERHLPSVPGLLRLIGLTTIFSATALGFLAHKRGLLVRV
Description: . The stock was then further diluted by factors of ten to produce solutions of 1 mM, 100 µM, 10 µM, 1 µM, and 0.1 µM which would correspond to concentrations of 100 µM, 10 µM, 1 µM, 0.1 µM, and 0.01 µM in the final reaction mixture. A potassium phosphate buffer ([…] 100 mM, pH 7.4, 0.9% w/v NaCl) was prepared and refrigerated until further use. The enzyme stock solutions were prepared by dissolving 2.5 mg of enzyme in 33.33 ml of phosphate buffer to produce stock solutions of 0.075 mg/ml which were stored in aliquots at −80 °C until use. […]. The substrate was prepared by dissolving kynuramine in potassium buffer and was prepared as two separate concentrations; […]. The fresh substrate was prepared on the day of the assay. The assay was carried out in 2 ml Eppendorf vials. […] Following this, 25 µl of the enzyme stock were added to each vial in 10 s intervals and the vials were incubated at 37 °C for 10 min. After this time period 15 µl of kynuramine (750 µM for MAO-A and 500 µM for MAO-B) was added at 10 s intervals and further incubated for 20 min. To stop the reaction at the end of this time 150 hx00B5;l of 2 N NaOH was added and the mixture was shaken. Using a micropipette 80 hx00B5;l of the mixture was transferred to a well in a black 96 well plate. The plate was placed in the fluorescent plate reader and read at an excitation/emission wavelength of 310 nm/410 nm. Each assay was run in triplicate and the data were analysed with Graph Pad Prism 8 software (San Diego, USA).
The MAO inhibitory activity of the compounds was assessed using a fluorometric assay with recombinant human MAO-A and human MAO-B enzymes. […].

[2] = tested on: MPP+-compromised SH-SY5Y neuroblastoma cells; format: cell-based, human; details: 10 µM compound, 2000 µM MPP+; for MPP+ neuroprotection (difference in percentage cell viability vs MPP+ only treated cells): 2 h pre-treatment, 24 h, SH-SY5Y; for survival rate of MPP+-treated cells: untreated control = 100%
Description: SH-SY5Y cells were seeded onto a 96-well plate in a growth medium at a density of 10,000 cells/well. Cells were pre-treated with test compounds at a concentration of 10 µM and thereafter 2000 µM MPP^+ following a 2-h incubation period. Afterwards, cells were incubated for 24 h and MTT colorimetric assay was used to measure cell viability relative to untreated control. To determine the data’s statistical significance, the One-way ANOVA Turkey’s multiple comparison test was conducted on all experimental replicates using GraphPad Prism® 8 (San Diego, USA).
The SH-SY5Y cells were pre-treated with 10 µM of the test compounds for 2 h followed by the addition of 2000 µM of MPP^+.

[3] = Ellman method, read-out: AChE IC50
[4] = kynuramine 45 µM, read-out: MAO-A IC50

Sequence of Electrophorus electricus AChE (O42275 24-633): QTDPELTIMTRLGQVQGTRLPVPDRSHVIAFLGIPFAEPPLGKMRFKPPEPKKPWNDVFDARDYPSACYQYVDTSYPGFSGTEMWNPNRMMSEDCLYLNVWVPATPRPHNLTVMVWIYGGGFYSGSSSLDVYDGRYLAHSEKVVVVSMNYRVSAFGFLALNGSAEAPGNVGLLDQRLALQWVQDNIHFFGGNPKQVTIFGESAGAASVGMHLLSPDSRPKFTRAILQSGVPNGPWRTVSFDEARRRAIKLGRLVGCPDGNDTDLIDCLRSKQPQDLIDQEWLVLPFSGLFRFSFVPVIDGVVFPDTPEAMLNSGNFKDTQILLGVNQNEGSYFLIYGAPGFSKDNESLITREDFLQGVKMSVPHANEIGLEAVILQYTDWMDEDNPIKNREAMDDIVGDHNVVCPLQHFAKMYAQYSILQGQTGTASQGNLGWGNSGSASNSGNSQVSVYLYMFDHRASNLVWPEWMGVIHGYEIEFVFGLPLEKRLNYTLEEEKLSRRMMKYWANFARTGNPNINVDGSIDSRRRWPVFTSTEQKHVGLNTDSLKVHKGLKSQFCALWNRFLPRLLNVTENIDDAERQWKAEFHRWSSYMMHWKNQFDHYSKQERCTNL

Row | Compound | IC50 [1, 3] | inhibition at 100 µM ([1]; at 100 µM, read-out: AChE enzyme inhibition) | IC50 (recombinant human MAO-A; [4]) | SI MAO-B (MAO-B selectivity index = IC50(MAO-A)/IC50(MAO-B)) (recombinant human MAO-B) | IC50 (recombinant human MAO-B) | MPP+ neuroprotection (difference in percentage cell viability vs MPP+ only treated cells) [2] | IC50 ([1]; AChE IC50, Ellman method) | IC50 (recombinant human MAO-A; MAO-A IC50, kynuramine 45 µM) | survival rate of MPP+-treated cells [2]
1 | CCN(CC)C(=O)Oc1ccc2cc(CBr)c(=O)oc2c1 [Compound 5, 3-(bromomethyl)-2-oxo-2H-1-benzopyran-7-yl-diethylcarbamate] | ~108000 nM and 108000 nM | 49% | 360 nM and 355 nM | 1.05 | 333 nM | 21.86% |  |  | 
2 | C#CCNCc1cc2ccc(OC(=O)N(CC)CC)cc2oc1=O [Compound 7, 2-oxo-3-{[(prop-2-yn-1-yl)amino]methyl}-2H-1-benzopyran-7-yl-diethylcarbamate] |  |  |  | 205.9 | 101 nM | 28.19% | > 100000 nM | 20800 nM | 85%
3 | O=c1oc2cc(OCCc3ccccc3)ccc2cc1CBr [Compound 4, 3-(bromomethyl)-7-(2-phenylethoxy)-2H-1-benzopyran-2-one] | > 100000 nM |  | 480 nM and 476 nM |  | > 100000 nM | 22.11% |  |  | 
4 | C#CCNCc1cc2ccc(OCCc3ccccc3)cc2oc1=O [Compound 6, 7-(2-phenylethoxy)-3-{[(prop-2-yn-1-yl)amino]methyl}-2H-1-benzopyran-2-one] | > 100000 nM |  | 3860 nM | 133.2 | 29 nM | 35.96% |  |  | 92%
